{
  "source": "paper PMC5063977",
  "about": "(The Journal of Biological Chemistry, 2016)",
  "type_in_all_cases": "cell-based",
  "key": {"RAMP2-CLR (AM1 receptor)": {"molecular_target": "T1, RAMP2-CLR (AM1 receptor) (Homo sapiens, UniProt O60895+Q16602)", "T1 construct": "FLAG; expressed in transfected cells; host or cells: HEK-293 or HEK-293S cells, transient transfection, 1:1 RAMP:CLR", "T1 sequence (Q16602 23-461)": "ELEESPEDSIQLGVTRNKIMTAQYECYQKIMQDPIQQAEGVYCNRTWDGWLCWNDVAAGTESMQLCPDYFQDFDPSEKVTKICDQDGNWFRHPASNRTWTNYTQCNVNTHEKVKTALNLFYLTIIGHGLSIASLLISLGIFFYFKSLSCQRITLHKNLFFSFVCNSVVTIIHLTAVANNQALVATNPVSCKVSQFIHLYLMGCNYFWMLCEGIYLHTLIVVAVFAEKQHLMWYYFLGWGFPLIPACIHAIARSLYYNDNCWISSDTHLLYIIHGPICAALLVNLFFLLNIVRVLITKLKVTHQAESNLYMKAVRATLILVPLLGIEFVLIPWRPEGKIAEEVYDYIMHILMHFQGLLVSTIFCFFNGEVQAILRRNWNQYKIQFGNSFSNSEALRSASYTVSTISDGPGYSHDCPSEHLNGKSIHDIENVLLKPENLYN", "T1 sequence (O60895 43-175)": "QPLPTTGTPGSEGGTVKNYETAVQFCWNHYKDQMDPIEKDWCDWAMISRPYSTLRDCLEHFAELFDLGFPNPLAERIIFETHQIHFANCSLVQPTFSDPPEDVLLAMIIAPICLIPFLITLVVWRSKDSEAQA", "assay": "S. cerevisiae growth assay, GPA1/Gαi chimera, RAMP2 + CLR", "conditions": "percentage of yeast strain MMY11 (lacking GPA1); 20 h; mean ± S.E., n = 6", "procedure": "FIGURE 3. […] Reporter gene activity was determined following 20 h of stimulation.\nGeneral yeast procedures were performed as described previously ([22], [24]). The human CLR was introduced into yeast cells under the control of the PGK promoter using a plasmid containing ura3 (pDT-PGK). The three human RAMPs were introduced into yeast under the control of the GAPDH promoter using plasmids containing leu2 (p425-GPD) ([25]). S. cerevisiae dual reporter strains expressing chimeras of yeast GPA1(1–467) (GPA1/Gα) with the five C-terminal amino acids of […] human G proteins representing Gαs, Gα16, Gαq, Gαo, Gαi1/2, Gαi3, Gαz, Gα12, Gα13, and Gα14 (MMY84–MMY93) were used in this study ([52]). […] Receptor signaling was measured using the yeast growth assay as described previously ([24]). […] A fluorescein signal was detected as an increase in fluorescence (excitation wavelength = 485 nm, emission wavelength = 535 nm) as a measure of growth. Different concentrations of ligand (0.01 nM–100 μM) were assayed using 96-well plates, and fluorescence was detected using a Tecan Infinite M200 microplate reader (Tecan Ultra Evolution, Reading, UK) or a Mithras LB 940 microplate reader (Berthold Technologies, Harpenden, UK) for 20 h. […]"}, "[1]": {"molecular_target": "T2, RAMP1-CLR (CGRP receptor) (Homo sapiens, UniProt O60894+Q16602)", "T2 construct": "FLAG; expressed in transfected cells; host or cells: HEK-293 or HEK-293S cells, transient transfection, 1:1 RAMP:CLR", "T2 sequence (Q16602 23-461)": "as the sequence (Q16602 23-461) above", "T2 sequence (O60894 27-148)": "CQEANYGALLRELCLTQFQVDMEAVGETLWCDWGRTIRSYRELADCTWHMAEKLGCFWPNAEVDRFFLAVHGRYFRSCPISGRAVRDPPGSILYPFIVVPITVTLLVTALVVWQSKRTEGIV", "assay": "(Ca^2+)i mobilization, HEK-293S cells, RAMP1 + CLR", "conditions": "HEK293S, percentage of maximal (Ca^2+)i release with 10 μM ionomycin, mean ± S.E., n = 5", "procedure": "(§1) HEK-293 cells were transfected with FuGENE 6 (Roche Applied Science) in accordance with the manufacturer's instructions using a 1:3 (w:v) DNA:FuGENE ratio and a 1:1 ratio of RAMP to CLR. […] The transfected cell lines were grown for 24–48 h prior to assaying.\nTransfected HEK-293 cells were grown to confluence in black, clear bottomed, 96-well plates. […] Cells were then washed followed by the addition of 100 μl of Ca^2+-free Hanks' balanced salt solution. […] Recordings were obtained every 0.5 s for 120 s. Peak magnitude was calculated using five-point smoothing followed by correction against background fluorescence. The peak was used to generate concentration-response curves and normalized relative to 10 μM ionomycin.\nData analysis for cAMP assays was performed in GraphPad Prism 6.0f (San Diego, CA). […] These values were then used to quantify signaling bias as change in log (τ/Ka) relative to the natural cognate ligand for the respective receptor ([41]). […] Statistical differences were analyzed using one-way ANOVA or Student's t test as appropriate with post hoc Bonferroni's or Dunnett's multiple comparisons, and p < 0.05 was considered significant. […] To quantitate the ligand-dependent response in the yeast system, a strain lacking GPA1 (MMY11), grown in rich medium, was used as a standard ([72]). […]"}, "[2]": {"molecular_target": "T2, RAMP1-CLR (CGRP receptor)", "assay": "cAMP accumulation, HEK-293 cells, RAMP1 + CLR", "conditions": "mean ± S.E.", "procedure": "as §1\nThe transfected HEK-293 cells were washed in PBS, resuspended in stimulation buffer (PBS containing 0.1% BSA and 0.5 mM IBMX), and seeded at 2000 cells/well in 384-well white Optiplates. Ligands were added in the range of 1 pM to 1 mM, and cAMP accumulation was measured after 30 min of stimulation using a LANCE® cAMP detection kit (PerkinElmer Life Sciences). […] Plates were read using a Mithras LB 940 multimode microplate reader (Berthold Technologies). […] Values were converted to concentration using a cAMP standard curve performed in parallel.\nData analysis for cAMP assays was performed in GraphPad Prism 6.0f (San Diego, CA). Data were fitted to obtain concentration-response curves using either the three-parameter logistic equation (for pEC50 values) or the operational model for partial agonism ([34]) to obtain values of efficacy (log τ) and the equilibrium dissociation constant (log Ka). These values were then used to quantify signaling bias as change in log (τ/Ka) relative to the natural cognate ligand for the respective receptor ([41]). […] Statistical differences were analyzed using one-way ANOVA or Student's t test as appropriate with post hoc Bonferroni's or Dunnett's multiple comparisons, and p < 0.05 was considered significant. […] For RT-PCR, normalization to the internal standard GAPDH was performed to reduce variance and enable a comparison between different cell lines. To quantitate the ligand-dependent response in the yeast system, a strain lacking GPA1 (MMY11), grown in rich medium, was used as a standard ([72]). As GPA1 is not present in this strain, the Gβγ subunits are unregulated and free to signal, allowing us to determine the maximal response of our system. […] For the mammalian cell-based assays, data analysis was carried out as for the yeast curves. […]"}},
  "data": [
    {"smiles": "CSCC[C@H](NC(=O)[C@H](CC(C)C)NC(=O)[C@H](CCC(N)=O)NC(=O)[C@H](Cc1c[nH]c2ccccc12)NC(=O)[C@H](CC(C)C)NC(=O)[C@H](CCCNC(=N)N)NC(=O)[C@H](Cc1c[nH]cn1)NC(=O)[C@H](CO)NC(=O)[C@H](CC(C)C)NC(=O)[C@H](CC(N)=O)NC(=O)[C@H](CCC(N)=O)NC(=O)[C@@H](NC(=O)[C@H](CCC(N)=O)NC(=O)[C@@H]1CSSC[C@H](NC(=O)CNC(=O)[C@@H](NC(=O)[C@H](CCCNC(=N)N)NC(=O)[C@H](CC(C)C)NC(=O)[C@H](CC(C)C)NC(=O)[C@H](CCC(N)=O)NC(=O)[C@H](C)NC(=O)[C@H](CCC(N)=O)NC(=O)[C@@H](N)[C@@H](C)O)C(C)C)C(=O)N[C@@H](C(C)C)C(=O)N[C@@H](CC(C)C)C(=O)NCC(=O)N[C@@H]([C@@H](C)O)C(=O)N1)C(C)C)C(=O)NCC(=O)N1CCC[C@H]1C(=O)N[C@@H](C)C(=O)NCC(=O)N[C@@H](CCCNC(=N)N)C(=O)N[C@@H](CCC(N)=O)C(=O)N[C@@H](CC(=O)O)C(=O)N[C@@H](CO)C(=O)N[C@@H](C)C(=O)N1CCC[C@H]1C(=O)N[C@H](C(=O)N[C@@H](CC(=O)O)C(=O)N1CCC[C@H]1C(=O)N[C@@H](CO)C(=O)N[C@@H](CO)C(=O)N1CCC[C@H]1C(=O)N[C@@H](Cc1c[nH]cn1)C(=O)N[C@@H](CO)C(=O)N[C@@H](Cc1ccc(O)cc1)C(N)=O)C(C)C", "note": "[AM2, adrenomedullin 2]", "values": [
      {"measurement": "Emax", "setting": "RAMP2-CLR (AM1 receptor)", "value": "15.7 ± 2.5", "unit": "%"}
    ]},
    {"smiles": "CC[C@H](C)[C@H](NC(=O)[C@H](CCC(N)=O)NC(=O)[C@H](Cc1c[nH]cn1)NC(=O)[C@H](C)NC(=O)[C@H](CC(C)C)NC(=O)[C@H](CCCCN)NC(=O)[C@H](CCC(N)=O)NC(=O)[C@@H](NC(=O)[C@@H](NC(=O)[C@@H]1CSSC[C@H](NC(=O)CNC(=O)[C@H](Cc2ccccc2)NC(=O)[C@H](CO)NC(=O)[C@H](CCCNC(=N)N)NC(=O)[C@H](CC(C)C)NC(=O)CNC(=O)[C@H](CCC(N)=O)NC(=O)[C@H](Cc2ccccc2)NC(=O)[C@H](CC(N)=O)NC(=O)[C@H](CC(N)=O)NC(=O)[C@H](CCSC)NC(=O)[C@H](CO)NC(=O)[C@H](CCC(N)=O)NC(=O)[C@H](CCCNC(=N)N)NC(=O)[C@@H](N)Cc2ccc(O)cc2)C(=O)N[C@@H](CCCNC(=N)N)C(=O)N[C@@H](Cc2ccccc2)C(=O)NCC(=O)N[C@@H]([C@@H](C)O)C(=O)N1)[C@@H](C)O)C(C)C)C(=O)N[C@@H](Cc1ccc(O)cc1)C(=O)N[C@@H](CCC(N)=O)C(=O)N[C@@H](Cc1ccccc1)C(=O)N[C@H](C(=O)N[C@@H](CC(=O)O)C(=O)N[C@@H](CCCCN)C(=O)N[C@@H](CC(=O)O)C(=O)N[C@@H](CCCCN)C(=O)N[C@@H](CC(=O)O)C(=O)N[C@@H](CC(N)=O)C(=O)N[C@H](C(=O)N[C@@H](C)C(=O)N1CCC[C@H]1C(=O)N[C@@H](CCCNC(=N)N)C(=O)N[C@@H](CO)C(=O)N[C@@H](CCCCN)C(=O)N[C@H](C(=O)N[C@@H](CO)C(=O)N1CCC[C@H]1C(=O)N[C@@H](CCC(N)=O)C(=O)NCC(=O)N[C@@H](Cc1ccc(O)cc1)C(N)=O)[C@@H](C)CC)C(C)C)[C@@H](C)O", "note": "[AM, adrenomedullin]", "values": [
      {"measurement": "Emax", "setting": "[1]", "value": "38.2 ± 3.8", "unit": "%"},
      {"measurement": "Emax", "setting": "[2]; HEK293, PTX treated (200 ng/ml, 16 h), percentage of maximal cAMP with 100 μM forskolin in presence of PTX, n = 6 (Table 3)", "value": "72.2 ± 1.7", "unit": "%"},
      {"measurement": "Emax", "setting": "[2]; HEK293, percentage of maximal cAMP with 100 μM forskolin, HEK-293, 30 min, n = 11 (Table 2)", "value": "45.2 ± 3.7", "unit": "%"},
      {"measurement": "Emax", "setting": "[2]; HEK293, untreated, percentage of maximal cAMP with 100 μM forskolin in presence of PTX, n = 9 (Table 3)", "value": "48.1 ± 2.5", "unit": "%"}
    ]}
  ]
}
